We go through 9 compounds from PMC4083421 (Nature Communications, 2014).

Common to all, as to assay type: binding
Assay [1] has as its target T1, 1LysM module of AtlA (Enterococcus faecalis, UniProt P37710). Put plainly: biochemical.
Another assay concerns the target L1 (Enterococcus faecalis, UniProt P37710). Briefly: Steady-state SPR.
The target of a further assay is T2, L1L2L3 (Enterococcus faecalis, UniProt P37710).
T2 sequence (P37710 338-542 A476S/S477A): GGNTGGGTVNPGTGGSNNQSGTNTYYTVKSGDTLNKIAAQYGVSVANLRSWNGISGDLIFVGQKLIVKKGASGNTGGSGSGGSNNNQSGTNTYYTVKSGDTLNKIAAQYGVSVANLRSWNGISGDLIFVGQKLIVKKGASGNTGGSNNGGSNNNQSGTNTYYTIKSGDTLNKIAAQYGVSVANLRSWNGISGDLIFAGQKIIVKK
Put plainly: Steady-state SPR. As to conditions: SD.

The target of a further assay is T3, L1–L6 (Enterococcus faecalis, UniProt P37710).
T3 sequence (P37710 338-737): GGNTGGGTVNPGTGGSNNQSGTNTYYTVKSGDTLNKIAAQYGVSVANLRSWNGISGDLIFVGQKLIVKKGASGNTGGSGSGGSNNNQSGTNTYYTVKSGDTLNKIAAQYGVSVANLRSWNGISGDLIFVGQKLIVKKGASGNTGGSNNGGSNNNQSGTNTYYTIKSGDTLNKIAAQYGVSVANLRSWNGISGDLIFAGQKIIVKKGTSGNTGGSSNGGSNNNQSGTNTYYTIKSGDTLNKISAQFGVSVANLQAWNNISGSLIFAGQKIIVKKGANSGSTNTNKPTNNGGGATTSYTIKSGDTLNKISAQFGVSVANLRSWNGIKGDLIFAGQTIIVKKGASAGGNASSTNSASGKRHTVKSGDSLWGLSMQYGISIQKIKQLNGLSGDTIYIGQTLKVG
Put plainly: Steady-state SPR. The conditions noted are these: SD.

Assay [2] addresses T4, 1 (1LysM, WT) (Enterococcus faecalis, UniProt P37710). Briefly: Steady-state SPR.
Another assay addresses L1L2 (Enterococcus faecalis, UniProt P37710). Put plainly: Steady-state SPR.
Assay [3] addresses T1, 1LysM module of AtlA. Put plainly: biochemical. The conditions noted are these: Apparent KD to 1LysM (SPR), single LysM module; ± standard deviation.
The target of assay [4] is T4, 1 (1LysM, WT). Put plainly: SPR.

Where two headings read alike, the source gives them in different places. A value given as a limit tells only on which side of the number the result lay.

The compound `CC(=O)N[C@H]1[C@H](O[C@H]2[C@H](O[C@H](C)C(=O)O)[C@@H](NC(C)=O)C(O)O[C@@H]2CO)O[C@H](CO)[C@@H](O[C@@H]2O[C@H](CO)[C@@H](O[C@@H]3O[C@H](CO)[C@@H](O)[C@H](O)[C@H]3NC(C)=O)[C@H](O[C@H](C)C(=O)O)[C@H]2NC(C)=O)[C@@H]1O` (stereo partly drawn) [(GlcNAc-MurNAc)2, (GlcNAc-β−1,4-MurNAc)2] gave a Kd at 1LysM module of AtlA [1] of 650 µM.
Turning to `CC(=O)N[C@H]1[C@H](O[C@H]2[C@H](O)[C@@H](NC(C)=O)C(O)O[C@@H]2CO)O[C@H](CO)[C@@H](O)[C@@H]1O` (stereo partly drawn) [GlcNAc2, chitobiose (di-N-acetylchitobiose, beta-1,4-linked GlcNAc dimer)], the Kd on L1 is over 5000 µM; on L1L2L3 it was 7100 µM; at L1–L6, 4420 µM; at 1 (1LysM, WT) [2] it was over 5000 µM; on L1L2 it was over 5000 µM.
On to `CC(=O)N[C@H]1[C@H](O[C@H]2[C@H](O)[C@@H](NC(C)=O)C(O)O[C@@H]2CO)O[C@H](CO)[C@@H](O[C@@H]2O[C@H](CO)[C@@H](O)[C@H](O)[C@H]2NC(C)=O)[C@@H]1O` (stereo partly drawn) [GlcNAc3, chitotriose (tri-N-acetylchitotriose, beta-1,4-linked GlcNAc trimer)], for which the Kd worked out at 453 ± 58.6 µM at L1 (SD), 628 ± 32.8 µM on L1L2L3, 702 ± 87.7 µM on L1–L6 and 678 ± 57.3 µM on L1L2 (SD).
Regarding `CC(=O)N[C@H]1[C@H](O[C@H]2[C@H](O)[C@@H](NC(C)=O)C(O)O[C@@H]2CO)O[C@H](CO)[C@@H](O[C@@H]2O[C@H](CO)[C@@H](O)[C@H](O)[C@H]2NC(C)=O)[C@@H]1O` (stereo partly drawn) [GlcNAc3], the Kd at 1LysM module of AtlA [3] was 408 ± 80.8 µM.
Take `CC(=O)N[C@H]1[C@H](O[C@H]2[C@H](O)[C@@H](NC(C)=O)C(O)O[C@@H]2CO)O[C@H](CO)[C@@H](O[C@@H]2O[C@H](CO)[C@@H](O[C@@H]3O[C@H](CO)[C@@H](O)[C@H](O)[C@H]3NC(C)=O)[C@H](O)[C@H]2NC(C)=O)[C@@H]1O` (stereo partly drawn) [GlcNAc4, chitotetraose (tetra-N-acetylchitotetraose, beta-1,4-linked GlcNAc tetramer)]: the Kd at L1 (SD) stood at 50.4 ± 4.1 µM; on L1L2L3, 22.3 ± 1.8 µM; at L1–L6, 18.6 ± 4.5 µM; on L1L2 (SD) it was 38.1 ± 2.8 µM.
Consider `CC(=O)N[C@H]1[C@H](O[C@H]2[C@H](O)[C@@H](NC(C)=O)C(O)O[C@@H]2CO)O[C@H](CO)[C@@H](O[C@@H]2O[C@H](CO)[C@@H](O[C@@H]3O[C@H](CO)[C@@H](O)[C@H](O)[C@H]3NC(C)=O)[C@H](O)[C@H]2NC(C)=O)[C@@H]1O` (stereo partly drawn) [GlcNAc4, reference compound], for which the Kd at 1LysM module of AtlA [3] was determined as 43.4 ± 3 µM; at 1LysM module of AtlA [1], 90 µM.
For the compound `CC(=O)N[C@H]1[C@H](O[C@H]2[C@H](O)[C@@H](NC(C)=O)[C@H](O[C@H]3[C@H](O)[C@@H](NC(C)=O)C(O)O[C@@H]3CO)O[C@@H]2CO)O[C@H](CO)[C@@H](O[C@@H]2O[C@H](CO)[C@@H](O[C@@H]3O[C@H](CO)[C@@H](O)[C@H](O)[C@H]3NC(C)=O)[C@H](O)[C@H]2NC(C)=O)[C@@H]1O` (stereo partly drawn) [GlcNAc5, chitopentaose (penta-N-acetylchitopentaose, beta-1,4-linked GlcNAc pentamer)], the Kd on L1 (SD) turned out to be 12.1 ± 1.4 µM; on L1L2L3, 4.6 ± 0.4 µM; on 1 (1LysM, WT) [4], 11.7 ± 1.7 µM; at L1–L6, 2.2 ± 0.3 µM; at L1L2 (SD), 9.6 ± 0.8 µM.
For `CC(=O)N[C@H]1[C@H](O[C@H]2[C@H](O)[C@@H](NC(C)=O)[C@H](O[C@H]3[C@H](O)[C@@H](NC(C)=O)C(O)O[C@@H]3CO)O[C@@H]2CO)O[C@H](CO)[C@@H](O[C@@H]2O[C@H](CO)[C@@H](O[C@@H]3O[C@H](CO)[C@@H](O[C@@H]4O[C@H](CO)[C@@H](O)[C@H](O)[C@H]4NC(C)=O)[C@H](O)[C@H]3NC(C)=O)[C@H](O)[C@H]2NC(C)=O)[C@@H]1O` (stereo partly drawn) [GlcNAc6, chitohexaose (hexa-N-acetylchitohexaose, beta-1,4-linked GlcNAc hexamer)], the Kd at L1 (SD) was 5.6 ± 0.5 µM; on L1L2L3, 3 ± 0.1 µM; at L1–L6, 1.5 ± 0.1 µM; at L1L2 (SD), 5 ± 0.3 µM.
With `CC(=O)N[C@H]1[C@H](O[C@H]2[C@H](O)[C@@H](NC(C)=O)[C@H](O[C@H]3[C@H](O)[C@@H](NC(C)=O)C(O)O[C@@H]3CO)O[C@@H]2CO)O[C@H](CO)[C@@H](O[C@@H]2O[C@H](CO)[C@@H](O[C@@H]3O[C@H](CO)[C@@H](O[C@@H]4O[C@H](CO)[C@@H](O)[C@H](O)[C@H]4NC(C)=O)[C@H](O)[C@H]3NC(C)=O)[C@H](O)[C@H]2NC(C)=O)[C@@H]1O` (stereo partly drawn) [GlcNAc6], the Kd on 1LysM module of AtlA [3] came to 6 ± 0.8 µM.
